Values after ≈ are worked out from the molar mass of the structure shown. Read-outs that look alike come from different tables or passages of the source. Residues, ends and D or L forms follow the SMILES beside them. No end group written: not given here. Tobramycin = aminoglycoside, conjugated at the peptide N-terminus; Neomycin = aminoglycoside, conjugated at the peptide N-terminus
Experiments:
[1] = cited from earlier work
P. aeruginosa = assay: antimicrobial activity (MIC) of P-L-A conjugates; assay type: cell-based; details: for MIC: stationary
E. coli [2] = assay: antimicrobial activity (MIC) of P-L-A conjugates; assay type: cell-based
E. coli persisters = assay: E. coli persister killing assay, pentobra plus adjuvant; assay type: cell-based; details: 10 mM arabinose; 1.5 hours
Description: Bacterial persisters were prepared essentially as described above, by growing an E. coli culture for 18-24 hours, at which point 100 μg/ml ampicillin was added for a 4-hour incubation to kill non-persisters. The cells were washed with M9 salts without carbon source, and subsequently diluted with M9 salts to an appropriate cell count for the killing assay. Approximately 10^6 E. coli cells per well were placed in a total volume of 100 μl in a 96-well plate on a shaker at 37° C. for 1.5 hours in the presence of each the following, respectively: Pentobra, Pentobra-plus-glucose (as adjuvant), tobramycin, tobramycin-plus-glucose (as adjuvant). A concentration series was used with 50, 25, 12.5, 6.25 and 0 μM for pentobra or tobramycin, and correspondingly 10, 5, 2.5, 1.25 and 0 mM for glucose. Incubation, dilution, and plating for colony assay determination were as described above. In a separate experiment, approximately 10^6 E. coli cells per well were placed in a total volume of 100 μl in a 96-well plate at 37° C. for 1.5 hours in the presence of each the following, respectively: pentobra, pentobra-plus-10 mM arabinose (as adjuvant), tobramycin, tobramycin-plus-10 mM arabinose (as adjuvant).
Persister cells were isolated and experiments to test for bactericidal activity were performed as described in Example 7 above.

NIH/3T3 cells [3] = assay: LIVE/DEAD viability/cytotoxicity assay; details: 100 μM; 8 h
Description: The effect of Pentobra on the plasma membrane integrity was investigated on NIH/3T3 cells using the Live/Dead® Viability/Cytotoxicity Kit (Molecular Probes). Briefly, 50,000 cells/well were incubated in a 24-well plate and treated with 100 μM of tobramycin, Pen peptide or Pentobra for 8 h at 37° C. Then, the cells were stained with 100 μL of the live/Dead assay reagents (2 μM calcein and 4 μM ethidium homodimer), and incubated at 37° C. for 20 min. The labeled cells were counted using a Zeiss Axiovert Observer Z1 inverted fluorescent microscope (at least 160 cells were counted for each treatment).
In addition, the effect of Pentobra on the cell membrane integrity was evaluated using the LIVE/DEAD® cell viability assay. This assay simultaneously determined intracellular esterase activity and plasma membrane integrity using two distinct dyes: a) calcein, a membrane permeable polyanionic dye that must be hydrolyzed by intracellular esterases (dead cells lack active esterases) to produce a green fluorescence and b) ethidium homodimer, a membrane impermeable red fluorescent dye that can only penetrate cells with compromised membranes.

S. aureus = assay: antimicrobial activity (MIC) of P-L-A conjugates; assay type: cell-based
NIH/3T3 cells [4] = assay: CellTox Green cytotoxicity assay; assay type: cell-based, mouse; details: concentrations up to 100 μM; 8 h incubation
Description: CellTox™ Green assay. The cytotoxicity of Pentobra was investigated on NIH/3T3 cells (ATCC) using CellTox™ Green assay (Promega, United States of America). Cells were seeded in a 96 well plate at a concentration of 2.5×10^3 cells/well. 100 μL of DMEM media were added to each well containing 0.2% CellTox green dye and varying concentrations of Pentobra, CPP or tobramycin and incubated for 8 and 24 h before the plate was read using an excitation wavelength of 485 nm and emission filter of 535 nm on a microplate reader (Beckman Coulter, DTX 880 Multimode Detector). A lysis solution, known to be toxic to the cells, was used as a positive control which represented the maximum dead cell signal obtainable from non-proliferating cells. The untreated cell population represented the maximal negative control signal obtainable at the end of an exposure period. The fluorescence values were normalized (from positive and negative controls) and converted to corresponding viability values.

[5] = tested on: Peripheral Blood Mononuclear Cells (PBMCs); assay: cell viability assay (MTT section, CellTiter-GLO); assay type: cell-based, human; details: 26 μM; over 72 hr
Description: (§1) Cell proliferation experiments were performed in 96-well plates (5 replicates). 26 μM of Pentobra and Tobramycin treatments were initiated at 24 hours post-seeding for 3 days. Stocks and dilutions of PLX4032/vemurafenib (Plexxikon) and AZD6244/selumetenib (Selleck Chemicals) were made in dimethyl sulfoxide (DMSO). Three cell types (PBMCs, Keratinocytes and Sebocytes cell lines) were tested. Cells were quantified using CellTiter-GLO Luminescence (Promega) following the manufacturer's recommendations.

keratinocytes = assay: cell viability assay (MTT section, CellTiter-GLO); assay type: cell-based, human; details: 26 μM; over 72 hr
Description: as §1

sebocytes = assay: cell viability assay (MTT section, CellTiter-GLO); assay type: cell-based, human; details: 26 μM; over 72 hr
Description: as §1

Acinetobacter (AcB) = assay: microbe, parasite or virus in culture; assay type: cell-based; details: isolate AcB, PM1434
Description: (§2) Pentobra was screened against a broad panel of microbial pathogens, including strains of E. coli, MRSA, Klebsiella (Kleb), Acinetobacter (AcB), Vancomycin-Sensitive Enterococci (VSE) and Vancomycin-Resistant Enterococci (VRE), and specifically including E. faecalis samples. […] The experimenter reported the minimum inhibitory concentration (MIC) in mass units per unit volume (μg/mL) for each compound, and MIC data were converted into molar concentrations (μM) due to the large difference between the molecular weight of tobramycin (467.5 g/mol) and Pentobra (2277 g/mol).

E. coli [6] = assay: microbe, parasite or virus in culture; assay type: cell-based
Description: as §2

Klebsiella (Kleb) = assay: microbe, parasite or virus in culture; assay type: cell-based; details: isolate Kleb, W6921701-1
Description: as §2

MRSA = assay: microbe, parasite or virus in culture; assay type: cell-based; details: isolate MRSA
Description: as §2

[7] = tested on: Vancomycin-Resistant Enterococci (VRE); assay: microbe, parasite or virus in culture; assay type: cell-based
Description: as §2

[8] = tested on: Vancomycin-Sensitive Enterococci (VSE); assay: organism not typed; assay type: cell-based
Description: as §2

NCC[C@H](O)C(=O)N[C@@H]1C[C@H](N)[C@@H](O[C@H]2O[C@H](CN)[C@@H](O)[C@H](O)[C@H]2O)[C@H](O)[C@H]1O[C@H]1O[C@H](CO)[C@@H](O)[C@H](N)[C@H]1O [amikacin]
octanol→water partition coefficient Log P ([1]; aminoglycosides): −3.34

NeoGP11: Neomycin-GPWWFKWPRLI [SEQ ID NO: 123], N-terminal conjugation
MIC (μM) P. aeruginosa (mid-log) (P. aeruginosa): 12.5 μM
MIC (P. aeruginosa): 50 µM

OC[C@H]1O[C@@](CO)(O[C@H]2O[C@H](CO)[C@@H](O)[C@H](O)[C@H]2O)[C@@H](O)[C@@H]1O [sucrose]
octanol→water partition coefficient Log P ([1]; sugars, Mazzobre et. al. 2005): −3.30

Reverse Pentobra: Tobramycin-GWRRNQFWIKIQR [SEQ ID NO: 95], N-terminal conjugation
MIC (μM) E. coli (mid-log) (E. coli [2]): 3.12 μM
MIC (μM) P. aeruginosa (mid-log) (P. aeruginosa): 12.5 μM

Amphi Pentobra: Tobramycin-GWIRNQFRKIWQR [SEQ ID NO: 81], N-terminal conjugation
MIC (μM) E. coli (mid-log) (E. coli [2]): 3.12 μM
MIC (μM) P. aeruginosa (mid-log) (P. aeruginosa): 12.5 μM

gentamycin
octanol→water partition coefficient Log P ([1]; aminoglycosides): −2.47

O=C[C@@H](O)[C@H](O)[C@H](O)CO [Arabinose, arabinose]
effect on killing potency of pentobra (E. coli persisters): enhanced pentobra, but to a lesser extent

TobrGW12: Tobramycin-GWRNQIRKGWQR [SEQ ID NO: 135], N-terminal conjugation
MIC (μM) P. aeruginosa (mid-log) (P. aeruginosa): 6.25 μM
MIC (P. aeruginosa): 12.5 µM

RQIKIWFQNRRW [Pen peptide]
cytotoxicity (percentage of red stained cells) (NIH/3T3 cells [3]): no statistical difference in cytotoxicity

Neo13: Neomycin-GFHGVKNLARRIL [SEQ ID NO: 109], N-terminal conjugation
MIC (μM) P. aeruginosa (mid-log) (P. aeruginosa): 12.5 μM
MIC (P. aeruginosa): 50 µM
MIC (μM) S. aureus (mid-log) (S. aureus): 12.5 μM

NC[C@@H]1O[C@H](O[C@H]2[C@@H](O)[C@H](O[C@@H]3[C@@H](O)[C@H](N)C[C@H](N)[C@H]3O[C@H]3O[C@H](CO)[C@@H](O)[C@H](O)[C@H]3N)O[C@@H]2CO)[C@H](N)[C@@H](O)[C@@H]1O [paromomycin]
octanol→water partition coefficient Log P ([1]; aminoglycosides): −3.27

neomycin
MIC (P. aeruginosa): 12.5 µM
MIC (μM) S. aureus (mid-log) (S. aureus): 1.56 μM
octanol→water partition coefficient Log P ([1]; aminoglycosides): −3.65

NC[C@H]1O[C@H](O[C@H]2[C@H](O)[C@@H](O[C@H]3O[C@H](CO)[C@@H](O)[C@H](N)[C@H]3O)[C@H](N)C[C@@H]2N)[C@H](O)[C@@H](O)[C@@H]1O [kanamycin]
octanol→water partition coefficient Log P ([1]; aminoglycosides): −4.55

[H]/N=C(/N)N[C@H]1[C@H](O)[C@@H](O)[C@H](O[C@@H]2O[C@@H](C)[C@](O)(C=O)[C@H]2O[C@@H]2O[C@@H](CO)[C@H](O)[C@@H](O)[C@@H]2NC)[C@@H](N/C(N)=N\[H])[C@@H]1O [streptomycin]
octanol→water partition coefficient Log P ([1]; aminoglycosides): −2.53

OC[C@H]1O[C@H](O[C@H]2O[C@H](CO)[C@@H](O)[C@H](O)[C@H]2O)[C@H](O)[C@@H](O)[C@@H]1O [trehalose]
octanol→water partition coefficient Log P ([1]; sugars, Mazzobre et. al. 2005): −3.77

CC[C@H](C)[C@H](NC(=O)[C@H](CCCCN)NC(=O)[C@@H](NC(=O)[C@H](CCC(N)=O)NC(=O)[C@H](CCCNC(=N)N)NC(=O)CCC(=O)OC[C@H]1O[C@H](O[C@@H]2[C@@H](O)[C@H](O[C@H]3O[C@H](CN)[C@@H](O)C[C@H]3N)[C@@H](N)C[C@H]2N)[C@H](O)[C@@H](N)[C@@H]1O)[C@@H](C)CC)C(=O)N[C@@H](Cc1c[nH]c2ccccc12)C(=O)N[C@@H](Cc1ccccc1)C(=O)N[C@@H](CCC(N)=O)C(=O)N[C@@H](CC(N)=O)C(=O)N[C@@H](CCCNC(=N)N)C(=O)N[C@@H](CCCNC(=N)N)C(=O)N[C@@H](Cc1c[nH]c2ccccc12)C(=O)O [Pentobra] (HELM PEPTIDE1{[NC[C@H]1O[C@H](O[C@H]2[C@H](O)[C@@H](O[C@H]3O[C@H](COC(=O)CCC(=O)[*:2])[C@@H](O)[C@H](N)[C@H]3O)[C@H](N)C[C@@H]2N)[C@H](N)C[C@@H]1O].R.Q.I.K.I.W.F.Q.N.R.R.W}$$$$V2.0)
cytotoxic effect (NIH/3T3 cells [4]): did not show any cytotoxic effect
cytotoxicity (percentage of red stained cells) (NIH/3T3 cells [3]): no statistical difference in cytotoxicity
plasma membrane integrity of eukaryotic cells (NIH/3T3 cells [3]): did not induce any loss of plasma membrane integrity
viability [5]: did not affect the viability
viability (keratinocytes): did not affect the viability
viability (sebocytes): did not affect the viability
MIC (Acinetobacter (AcB)): 7 µM (≈ 16 µg/mL)
MIC (E. coli [6]; isolate ATCC 25922, Ecoli (second entry)): 4 µM (≈ 9.12 µg/mL)
MIC (E. coli [6]; isolate ATCC Ecoli, 25922 (first entry)): 2 µM (≈ 4.56 µg/mL)
MIC (E. coli [6]; isolate Ecoli,YD461): 7 µM (≈ 16 µg/mL)
MIC (Klebsiella (Kleb)): 7 µM (≈ 16 µg/mL)
MIC (MRSA; F2806774): 56 µM (≈ 128 µg/mL)
MIC (MRSA; H2867813): >56 µM
MIC ([7]; isolate 24670, VRE^? (second entry)): 14 µM (≈ 31.9 µg/mL)
MIC ([7]; isolate F6541102, VRE): >56 µM
MIC ([7]; isolate H6926031, VRE*): 14 µM (≈ 31.9 µg/mL)
MIC ([7]; isolate M6865034, VRE): 14 µM (≈ 31.9 µg/mL)
MIC ([7]; isolate S3899836, VRE^? (second entry)): 14 µM (≈ 31.9 µg/mL)
MIC ([7]; isolate VRE, 24670): 14 µM (≈ 31.9 µg/mL)
MIC ([7]; isolate VRE, S3899836): 14 µM (≈ 31.9 µg/mL)
MIC ([8]; isolate S4895552, VSE, LZD-R): 14 µM (≈ 31.9 µg/mL)
MIC ([8]; isolate W7171143,VSE): 56 µM (≈ 128 µg/mL)
MIC ([8]; isolate W7214342,VSE): 28 µM (≈ 63.9 µg/mL)
MIC ([8]; isolate X4540299, VSE): 14 µM (≈ 31.9 µg/mL)
MIC (μM) E. coli (mid-log) (E. coli [2]): 6.25 μM
MIC (μM) P. aeruginosa (mid-log) (P. aeruginosa): 6.25-12.5 μM
MIC (P. aeruginosa): 25 µM (≈ 57 µg/mL)
MIC (μM) S. aureus (mid-log) (S. aureus): 25 μM
